One data set has as its system authentic variola virus. To be noted: cited from earlier work.
For data set [1] the following is noted: in vivo; cited from earlier work.
For data set [2] the following is noted: intravenous administration; cited from earlier work.
A short description of data set [3]: Moisture content by Karl Fischer method. The data set is classed as physicochemical. The following applies: Tray rehydration (18 hours bench top, 2 hours 25° C./60% RH or 2 hours 40° C./75% RH).

Regarding `Nc1ccn(C[C@@H](CO)OCP(=O)(O)O)c(=O)n1` [Cidofovir, (S)-1-(3-hydroxy-2-phosphonylmethoxypropyl)cytosine], in the data set on authentic variola virus, the Variola virus replication result is reported as “inhibit authentic variola virus replication”. The Bioavailability entry in data set [1] is “poorly bioavailable”. Moreover, the Nephrotoxicity result in data set [2] is “dose-limiting nephrotoxicity”.

Turning to `O=C(NN1C(=O)[C@@H]2[C@@H]3C=C[C@@H]([C@H]4C[C@@H]34)[C@@H]2C1=O)c1ccc(C(F)(F)F)cc1` [ST-246, N-[(3aR,4R,4aR,5aS,6S,6aS)-3,3a,4,4a,5,5a,6,6a-octahydro-1,3-dioxo-4,6-ethenocycloprop[f]isoindol-2(1H)-yl]-4-(trifluoromethyl)-benzamide], the “Moisture (% w/w KF)” value in data set [3] is recorded as roughly 4.5 % w/w.
